The nature of data set [1]: Plasma pharmacokinetics after IV bolus, non-compartmental analysis. Conditions: for AUC(0-inf) / C0 / clearance / half-life / Vd: mouse, plasma, healthy male DBA1/J mice, Mean ± SEM; for AUC(0-inf) / C0: IV bolus 2 nmol (FAPI dosed 51 nmol, dose normalized to 2 nmol); for clearance / half-life / Vd: IV bolus; for half-life: read-out: Terminal t1/2 (converted); for Vd: read-out: VD,ss; for clearance category (Fig. 1): words in Fig. 1. It is filed as in vivo, mouse. On the procedure:
FAPI was dosed IV (51 nmol) via the tail vein to maintain concentrations above LLOQ for PK analysis while all other FAPI conjugates were dosed IV (1 or 2 nmol in 150 µL PBS) via the tail vein. […] Whole blood was diluted with 10 mM EDTA in PBS and spun down to isolate plasma. Fluorescent ligand concentrations were quantified using a LI-COR Odyssey CLx scanner (Lincoln, NE) using a dilution series of fluorescent standards as previously reported. Non-compartmental analysis was conducted using the concentration vs. time profiles for each probe with MATLAB. The predicted initial concentration, terminal phase half-life, exposure (AUC0-inf), AUC extrapolation percentage, volume of distribution at steady state, and terminal clearance were reported for each dosed probe.

Data set [2] addresses T1, FAP (Mus musculus, UniProt P97321).
T1 construct: Increased FAP expression with increasing disease severity in CIA mice as assessed with IHC; from tissue; host or cells: inflamed paws of live DBA/1J mice with collagen-induced arthritis
T1 sequence (P97321 1-761): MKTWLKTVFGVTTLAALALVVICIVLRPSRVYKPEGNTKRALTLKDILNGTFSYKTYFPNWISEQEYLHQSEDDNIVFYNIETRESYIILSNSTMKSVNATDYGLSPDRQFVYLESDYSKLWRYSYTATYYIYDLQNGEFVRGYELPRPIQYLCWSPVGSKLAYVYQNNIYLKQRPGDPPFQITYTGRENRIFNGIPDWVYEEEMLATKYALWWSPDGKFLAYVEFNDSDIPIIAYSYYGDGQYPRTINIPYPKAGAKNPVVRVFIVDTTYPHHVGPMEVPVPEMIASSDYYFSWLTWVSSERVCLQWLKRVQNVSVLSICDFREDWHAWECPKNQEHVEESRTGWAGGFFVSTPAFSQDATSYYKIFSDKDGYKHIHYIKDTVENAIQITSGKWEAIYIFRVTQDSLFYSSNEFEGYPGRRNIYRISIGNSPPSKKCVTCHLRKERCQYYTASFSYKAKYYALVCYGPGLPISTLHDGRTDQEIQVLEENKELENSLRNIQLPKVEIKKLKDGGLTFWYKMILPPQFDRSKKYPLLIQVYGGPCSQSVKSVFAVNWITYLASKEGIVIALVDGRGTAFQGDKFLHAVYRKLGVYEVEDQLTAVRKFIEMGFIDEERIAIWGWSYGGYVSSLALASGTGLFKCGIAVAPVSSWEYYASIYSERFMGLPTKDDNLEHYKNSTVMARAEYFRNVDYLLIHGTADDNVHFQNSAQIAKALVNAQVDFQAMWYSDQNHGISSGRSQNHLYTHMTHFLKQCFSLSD
The experiment in a line: In vivo near-infrared imaging of paws with competitive blocking, CIA model.

Data set [3] concerns the target T2, cell surface FAP (HEK293-hFAP cells) (Homo sapiens, UniProt Q12884).
T2 construct: expressed in transfected cells; host or cells: HEK293 (ATCC, CRL-1573), Lipofectamine 3000 transfection, puromycin selection
T2 sequence (Q12884 1-760): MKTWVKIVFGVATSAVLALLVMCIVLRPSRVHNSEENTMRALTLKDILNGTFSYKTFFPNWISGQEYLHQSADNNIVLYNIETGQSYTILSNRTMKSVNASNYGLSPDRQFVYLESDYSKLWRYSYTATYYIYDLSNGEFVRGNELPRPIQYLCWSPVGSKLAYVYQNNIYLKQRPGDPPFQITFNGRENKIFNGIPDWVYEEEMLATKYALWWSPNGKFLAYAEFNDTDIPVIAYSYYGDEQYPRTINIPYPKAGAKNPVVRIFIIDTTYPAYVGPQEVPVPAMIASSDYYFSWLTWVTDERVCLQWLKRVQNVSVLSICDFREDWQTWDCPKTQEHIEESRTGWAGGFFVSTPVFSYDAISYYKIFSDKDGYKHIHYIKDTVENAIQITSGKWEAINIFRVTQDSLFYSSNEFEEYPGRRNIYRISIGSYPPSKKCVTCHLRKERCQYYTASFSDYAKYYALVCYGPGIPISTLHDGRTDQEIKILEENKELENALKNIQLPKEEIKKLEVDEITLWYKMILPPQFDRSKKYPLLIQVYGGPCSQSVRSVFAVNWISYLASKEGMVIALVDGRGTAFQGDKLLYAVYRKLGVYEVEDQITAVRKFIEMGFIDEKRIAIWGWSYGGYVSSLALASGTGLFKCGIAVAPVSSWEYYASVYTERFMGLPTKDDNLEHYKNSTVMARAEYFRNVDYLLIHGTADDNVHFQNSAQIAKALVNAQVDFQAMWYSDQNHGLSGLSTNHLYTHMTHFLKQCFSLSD
As to the kind of experiment: Competition assay against FAPI-ALB-AF647 for indirect KD. In kind it is binding. The conditions noted are these: competition with FAPI-ALB-AF647, 60 nM each, 30 min on ice, read-out: KD (nM), indirectly calculated. The procedure:
Both the FAPI-ALB-AF647 and the unlabeled competitor were incubated at 60 nM each on HEK293-hFAP cells for 30 min on ice to approach steady-state binding. The competition assay cells were pelleted and washed twice with PBS w/ 0.1% BSA before being analyzed using a BD Fortessa flow cytometer. The loss in signal from the competition incubation was then compared to the signal of the FAPI-ALB-AF647 incubation alone to determine the relative binding affinity.

The nature of data set [4]: Plasma protein binding by equilibrium dialysis. In kind it is in vitro ADME. The conditions noted are these: CD1 mouse plasma, 1 µM, equilibrium dialysis 4 h at 37 °C. On the procedure: CD1 mouse plasma protein binding was assessed via equilibrium dialysis. Dry membranes (HT Dialysis, HTD96b) were soaked in DI water for 15 min and then in 30% ethanol for another 15 min. After washing the membranes 3 times with DI water, the membranes were placed in dialysis buffer (potassium phosphate, 50 mM, pH 7.4) until the assay began. At the beginning of the assay, the membranes were placed in the dialysis block and 100 µL of buffer was added to both sides of the membrane to maintain membrane hydration/integrity. Each compound was diluted to 1 µM using plasma and then 100 µL of this mixture was added to one side of the membrane while 100 µl of […] was placed in opposite well. The plate was then sealed and placed on an orbital shaker (150 rpm) in an incubator at 37 °C for 4 h. Afterwards, samples were taken from the donor and acceptor side of the well, vortexed, centrifuged at 3300 rpm for 15 min at 4 °C and then analyzed for compound content using LC/MS.
(In general: In equilibrium dialysis only unbound substance equilibrates across the membrane.)

In data set [5] the test system is HEK293-hFAP cells. As to the kind of experiment: Receptor net internalization assay, flow cytometry with Trypan Blue quench. Conditions: endogenous and overexpressing cells together. It is filed as cell-based, human. On the procedure:
The receptor internalization assay was adapted from a previously published method for peptides[61],[63]. Briefly, HEK293-hFAP cells were sub-cultured into 6-well plates and allowed to adhere for 12–16 h. After washing cells with media, 100 nM of FAPI-AF488 in media was added to each well. Cells were incubated at 37 °C in the continuous presence of FAPI-AF488 and allowed to internalize. At each time point, plates were chilled, wells washed twice with PBS with 0.1% BSA, and cells lifted following Accutase incubation. Lastly, cells were resuspended in PBS or a dilution of 0.4% Trypan Blue before being analyzed via flow cytometry to differentiate between internal and surface fluorescence. The surface fluorescence was determined as (unquenched MFU – quenched MFU)/ɛ, where ɛ is the quenching efficiency determined by comparing the quenched and unquenched signals of cells that had been labeled briefly on ice to prevent internalization. The internal fluorescence was then calculated as total MFU – surface MFU. Non-specific uptake of small molecules was measured using cells where FAPI-AF488 was competed out with 100-fold excess concentration of the unlabeled FAPI. The corrected internal MFU values were plotted against the surface fluorescence integral; the slope of the linear curve is the internalization rate ke[64]. The same procedure was followed for the endogenous RAFLS cells.
(In general: A flow cytometer gives signals particle by particle.)

For data set [6], the system named is FAP. Further details: method as in PMID 29626119. The conditions noted are these: read-out: EC50 through competition assays; cited from earlier work.

“And” between values parts separate entries of the source, which are not always exact repeats. Equal values may be shown once.

By AUC(0-inf) is commonly meant the area under the concentration-time curve extrapolated to infinity. High values mean high exposure, low ones low exposure. What is called clearance is the volume of plasma or blood freed of the substance per unit of time. Read a high clearance as efficient removal. What is called Vd is a proportionality between amount in the body and measured concentration, not a real space. In general, Kd refers to a measure of binding affinity in units of concentration. One may read the EC50 as the concentration giving half of the maximal effect.

With `N#C[C@@H]1CC(F)(F)CN1C(=O)CNC(=O)c1ccnc2ccc(OCCCN3CCNCC3)cc12` [FAPI], in data set [1], the total exposure AUC(0-inf) is 0.014 ± 0.004 µM·h, the C0 is 50 ± 7 nM, the clearance was 3.9 mL/min and the half-life was 30 ± 6 min. In addition, in data set [1], the Vd is 0.0627 ± 0.0184 L and the “clearance category (Fig. 1)” value is “Fast clearance”. In addition, in data set [2] (CIA mice, 5 h, 50-fold molar excess), the “effect of co-dosed molar excess blocker on FAPI-800CW uptake in inflamed paws” value is reported as “did not provide a similar reduction”. Also, the Kd in data set [3] is 6 nM. Moreover, the “% Protein Bound ± SD” value in data set [4] was 44.7% and 44.7 ± 3.1%. Further, the “internalization half-life (t1/2)” value in data set [5] lay within 240 to 480 min.
As to `N#CC1CC(F)(F)CN1C(=O)CNC(=O)c1ccnc2ccc(OCCCN3CCN(C(=O)C(N)CCC(=O)NCCOCCOCC(=O)NCc4ccc(S(=O)(=O)NC(=O)c5ccc(-c6ccc(C(F)(F)F)cc6)cc5)cc4)CC3)cc12` (stereo not shown) [FAPI-ALB], in data set [1], the AUC(0-inf) stood at 0.088 ± 0.018 µM·h, the C0 turned out to be 189 ± 52 nM, the clearance was 0.42 mL/min and the half-life is 54 min. In data set [1], the Vd is 0.0145 ± 0.0084 L and the “clearance category (Fig. 1)” value is “Moderate clearance”. For the same compound, in data set [2] (CIA mice, 24 h, 1 nmol IV probe, blocker co-administered at 50-fold molar excess), the “mean fluorescence intensity of FAPI-ALB-800CW in inflamed paws when blocked by this compound” value worked out at 0.07 ± 0.01. The Kd in data set [3] was 3.6 nM. Further, in data set [4], the “% Protein Bound ± SD” value is given as 98.9 ± 0.2%.
`N#C[C@@H]1CC(F)(F)CN1C(=O)CNC(=O)c1ccnc2ccc(OCCCN3CCN(C(=O)CN4CCN(CC(=O)O)CCN(CC(=O)O)CCN(CC(=O)O)CC4)CC3)cc12` [FAPI-04]: the half-maximal effective concentration (EC50) in data set [6] was 6.5 nM.
Turning to `CC1(C)C(/C=C/C2=C(Oc3ccc(S(=O)(=O)O)cc3)C(=C/C=C3/N(CCCCS(=O)(=O)O)c4ccc(S(=O)(=O)O)cc4C3(C)C)/CCC2)=[N+](CCCCCC(=O)N2CCN(CCCOc3ccc4nccc(C(=O)NCC(=O)N5CC(F)(F)C[C@H]5C#N)c4c3)CC2)c2ccc(S(=O)(=O)O)cc21.O=C([O-])C(F)(F)F` [FAPI-800CW], in data set [1], the AUC(0-inf) was 0.525 ± 0.025 µM·h, the C0 amounted to 1250 ± 52 nM, the clearance is 0.0638 mL/min and the half-life was 60 ± 6 min. In data set [1], the Vd was 0.0039 ± 0.0002 L and the “clearance category (Fig. 1)” value is “Moderate clearance”. Also, in data set [2] (healthy mice, 5 h, 1 nmol IV, no block), the “mean fluorescence intensity in healthy paws” value is given as 0.026 ± 0.007. Also, the dissociation constant (Kd) in data set [3] is 8 nM.

The values are drawn from publication PMC12118671, “Increased imaging ligand hydrophilicity and improved pharmacokinetic properties provides enhanced in vivo targeting of fibroblast activation protein” (npj Imaging, 2024).
